Values joined by “and” are separate entries in the source; they are usually repeats but may differ in a detail not shown here. Equal values may be shown once. Read-outs that look alike come from different tables or passages of the source.
Tests used:
[1] = system: C. glabrata strains expressing WT and mutant Bdf1; test: Growth inhibition in liquid media, C. glabrata lab strains; conditions: for pEC50 growth inhibition: Fig 2C; for % Growth (OD at 600 nm): Fig 2F
Description: (§1) Growth on Liquid Media with C. glabrata Lab Strains: Cells were grown at 30 °C in SC+M+C‐U medium (SC medium with 5 mM methionine, 0.25 mM cysteine, without uracil) to an OD600 of 0.5–0.8. […] Plates were incubated at 30 °C and OD600 was measured using a Multiskan FC Microplate Photometer (Thermo Fisher).

HeLa cells = conditions: highest concentration tested (300 µM); 24 h
Description: Cytotoxicity assays were performed as described^[ [1] ^] with minor changes. Proliferation of human cells was assessed using an MTT colorimetric assay (Cell Proliferation Kit I, Roche). HeLa (epithelial cells, ATCC number CCL‐2) and IMR90 (primary fibroblasts cells, ATCC number CCL‐186) cells were cultured in humidified atmosphere (37 °C and 5% CO2) in DMEM medium containing 10% heat inactivated fetal calf serum and 2 mM glutamine. […] Plates were incubated at 37 °C and 5% CO2 for 24 h before adding 10 mL of MTT labelling reagent (final concentration 0.5 mg mL^−1) to each well. After incubating for a further 4 h, 100 µL of the solubilization solution were added in each well. Plates were allowed to stand overnight in the incubator before measuring the absorbance at 570 nm and at 690 nm in a ClarioStar plate reader. The values of A570–A690 nm were normalized relative to that obtained with vehicle (0.2% DMSO, 0.8% ethanol) and plotted against compound concentration.

Bmh1/Bmh2 = test: NanoBiT assay, control pair; assay type: cell-based, S. cerevisiae; parameters: Normalized nanoBiT signal: unit of the concentration uncertain; conditions: for Normalized nanoBiT signal: Bmh1-LgBiT, Bmh2-SmBiT, Fig 4C
Description: Yeast strains were distributed in 96‐well microplates containing SC(MSG)‐U medium (SC‐U medium with 0.1% monosodium glutamate instead of ammonium sulfate as a nitrogen source) and grown at 30 °C. 40 µL of exponentially growing cells were transferred in white 96‐well half‐area microplates (ProxiPlate Plus, Greiner Bio‐One) previously filled with 40 µL per well of SC(MSG) containing 100 µM furimazine. The microplates were then incubated for 10 min in the dark before the luminescence signals were recorded using a microplate reader (Ensight, PerkinElmer). Luminescence measurements were performed for 1 s per well at a distance of 0.1 mm between the plate and the detector. The luminescence values were normalized with the optical density (OD600) of the corresponding cultures. For NanoBiT assays with BET inhibitors, yeast cultures were grown overnight at 30 °C in SC(MSG) medium in the presence of serial dilutions of 24c and I‐BET726. Overnight cultures were diluted 5 fold in SC(MSG) and incubated for 1 h before luminescence was recorded as previously indicated. Luminescence values for each condition were normalized using the average of the luminescence recorded for the Bdf1/Swc4 and Bmh1/Bmh2 controls.

[2] = system: C. glabrata expressing humanized Bdf1 (Brd4 BDs); test: Growth inhibition in liquid media, humanized C. glabrata strains; conditions: Fig 3D; 50 µM; humanized BDF1-flag; Exp 1-3
Description: as §1

C. auris Bdf1 BD1 = C. auris Bdf1 BD1 (Candidozyma auris (Candida auris), UniProt A0AAW0VEM6); test: HTRF assay, inhibition of H4ac4 peptide binding
C. auris Bdf1 BD2 = C. auris Bdf1 BD2 (Candidozyma auris (Candida auris), UniProt A0AAW0VEM6); test: HTRF assay, inhibition of H4ac4 peptide binding
C. auris Bdf1 BD2, sequence (A0AAW0VEM6 entry or part of it): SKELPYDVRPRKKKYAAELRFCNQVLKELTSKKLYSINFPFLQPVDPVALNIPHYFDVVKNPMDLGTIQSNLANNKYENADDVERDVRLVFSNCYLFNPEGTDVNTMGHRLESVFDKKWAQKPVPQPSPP

C. auris Bdf1 BD1, sequence (A0AAW0VEM6 entry or part of it): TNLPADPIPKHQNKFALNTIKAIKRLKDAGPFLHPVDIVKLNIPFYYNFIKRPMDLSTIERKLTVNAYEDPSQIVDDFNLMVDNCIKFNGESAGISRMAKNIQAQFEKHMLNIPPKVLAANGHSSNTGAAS

Cc1ccc(-c2nnc(C)c(NCc3ccc(C)o3)n2)cc1 [Compound 24c, 6‐methyl‐N‐((5‐methylfuran‐2‐yl)methyl)‐3‐(p‐tolyl)‐1,2,4‐triazin‐5‐amine]
pEC50 growth inhibition ([1]; strain BD1 Y-F, single experiments Exp1-3): 4.034 and 3.821 | pEC50 growth inhibition ([1]; strain BD2 Y-F, single experiments Exp1-3): 4.481 and 4.395 | pEC50 (WT BDF1) ([1]; Fig 2D, WT C. glabrata, single experiments Exp1-3): 4.014 and 4.016 | % Growth (OD at 600 nm) ([1]; WT BDF1, 6.25 microM): 98% and 99% and 101% | % Growth (OD at 600 nm) ([1]; WT BDF1, 12.5 microM): 95% and 97% and 99% | % Growth (OD at 600 nm) ([1]; WT BDF1, 25 microM): 88% and 91% and 95% | % Growth (OD at 600 nm) ([1]; WT BDF1, 50 microM): 65% and 71% and 69% | % Growth (OD at 600 nm) ([1]; WT BDF1, 100 microM): 44% and 45% and 46% | % Growth (OD at 600 nm) ([1]; bdf1-bd1Y166F, 6.25 microM): 99% and 101% and 98% | % Growth (OD at 600 nm) ([1]; bdf1-bd1Y166F, 12.5 microM): 102% and 92% and 98% | % Growth (OD at 600 nm) ([1]; bdf1-bd1Y166F, 25 microM): 92% and 82% and 97% | % Growth (OD at 600 nm) ([1]; bdf1-bd1Y166F, 50 microM): 88% and 74% and 81% | % Growth (OD at 600 nm) ([1]; bdf1-bd1Y166F, 100 microM): 50% and 44% and 56% | % Growth (OD at 600 nm) ([1]; bdf1-bd1Δ, 6.25 microM): 98% and 99% and 93% | % Growth (OD at 600 nm) ([1]; bdf1-bd1Δ, 12.5 microM): 93% and 98% and 97% | % Growth (OD at 600 nm) ([1]; bdf1-bd1Δ, 25 microM): 88% and 86% and 96% | % Growth (OD at 600 nm) ([1]; bdf1-bd1Δ, 50 microM): 78% and 74% and 87% | % Growth (OD at 600 nm) ([1]; bdf1-bd1Δ, 100 microM): 50% and 43% and 61% | % Growth (OD at 600 nm) ([1]; bdf1-bd2Y343F, 6.25 microM): 89% and 90% and 88% | % Growth (OD at 600 nm) ([1]; bdf1-bd2Y343F, 12.5 microM): 80% and 76% and 84% | % Growth (OD at 600 nm) ([1]; bdf1-bd2Y343F, 25 microM): 68% and 61% and 66% | % Growth (OD at 600 nm) ([1]; bdf1-bd2Y343F, 50 microM): 40% and 46% | % Growth (OD at 600 nm) ([1]; bdf1-bd2Y343F, 100 microM): 20% and 22% | % Growth (OD at 600 nm) ([1]; bdf1-bd2Δ, 6.25 microM): 68% and 85% | % Growth (OD at 600 nm) ([1]; bdf1-bd2Δ, 12.5 microM): 64% and 70% and 59% | % Growth (OD at 600 nm) ([1]; bdf1-bd2Δ, 25 microM): 40% and 63% and 41% | % Growth (OD at 600 nm) ([1]; bdf1-bd2Δ, 50 microM): 30% and 38% and 23% | %Growth ([1]; Fig 3D, 50 µM, WT BDF1-flag, Exp 1-3): 54.5% and 57.2% and 54.2% | EC50 ([1]; Nakaseomyces glabratus, read-out: EC50 (μM) growth inhibition, strain WT BDF1 (both BDs active)): 90 µM | EC50 ([1]; Nakaseomyces glabratus, read-out: EC50 (μM) growth inhibition, strain bdf1-Y166F (active BD: BD2)): ~100 µM | EC50 ([1]; Nakaseomyces glabratus, read-out: EC50 (μM) growth inhibition, strain bdf1-Y343F (active BD: BD1)): 36.6 ± 33 µM | EC50 ([1]; Nakaseomyces glabratus, read-out: EC50 (μM) growth inhibition, strain bdf1-bd1Δ (active BD: BD2)): ~100 µM | EC50 ([1]; Nakaseomyces glabratus, read-out: EC50 (μM) growth inhibition, strain bdf1-bd2Δ (active BD: BD1)): 22.7 ± 7.9 µM | EC50 ([1]; Nakaseomyces glabratus, read-out: pEC50 (WT BDF1), Fig 2D (converted), WT C. glabrata, single experiments Exp1-3): 86.5 µM | EC50 ([1]; Nakaseomyces glabratus, read-out: pEC50 growth inhibition, Fig 2C (converted), strain BD1 Y-F, single experiments Exp1-3): 107 µM | EC50 ([1]; Nakaseomyces glabratus, read-out: pEC50 growth inhibition, Fig 2C (converted), strain BD2 Y-F, single experiments Exp1-3): 36.4 µM | EC50 ([1]; read-out: EC50 (μM) growth inhibition, strain WT BDF1 (both BDs active)): 93 µM | cytotoxicity toward HeLa cells (MTT) (HeLa cells): modest cytotoxicity | Normalized nanoBiT signal (Bmh1/Bmh2; 0.1953 (unit uncertain)): 107% and 92% and 96% and 99% | Normalized nanoBiT signal (Bmh1/Bmh2; 0.3906 (unit uncertain)): 88% and 99% and 103% | Normalized nanoBiT signal (Bmh1/Bmh2; 0.7813 (unit uncertain)): 86% and 104% and 98% and 103% | Normalized nanoBiT signal (Bmh1/Bmh2; 1.5625 (unit uncertain)): 100% and 97% and 101% | Normalized nanoBiT signal (Bmh1/Bmh2; 3.1250 (unit uncertain)): 93% and 97% (2×) and 103% | Normalized nanoBiT signal (Bmh1/Bmh2; 50.0000 (unit uncertain)): 79% and 98% and 101% and 93% | Normalized nanoBiT signal (Bmh1/Bmh2; 100.0000 (unit uncertain)): 95% and 97% and 100% and 88% | inhibition of NanoBiT signal, Bmh1/Bmh2 (Bmh1/Bmh2; unrelated control pair): not observed | %Growth [2]: 82.6% and 80.3% and 69.6% | remaining activity at 0.0021 µM (C. auris Bdf1 BD1; CauBD1, 24c 0.0021 microM, Exp1-3, read-out: Percent HTRF Signal): 100% | remaining activity at 0.0052 µM (C. auris Bdf1 BD1; CauBD1, 24c 0.0052 microM, Exp1-3, read-out: Percent HTRF Signal): 94.1% | remaining activity at 0.013 µM (C. auris Bdf1 BD1; CauBD1, 24c 0.013 microM, Exp1-3, read-out: Percent HTRF Signal): 99.7% | remaining activity at 0.033 µM (C. auris Bdf1 BD1; CauBD1, 24c 0.033 microM, Exp1-3, read-out: Percent HTRF Signal): 98.7% | remaining activity at 0.082 µM (C. auris Bdf1 BD1; CauBD1, 24c 0.082 microM, Exp1-3, read-out: Percent HTRF Signal): 99.6% | remaining activity at 0.2 µM (C. auris Bdf1 BD1; CauBD1, 24c 0.20 microM, Exp1-3, read-out: Percent HTRF Signal): 104% | remaining activity at […] (C. auris Bdf1 BD1; CauBD1, 24c 0.51 microM, Exp1-3, read-out: Percent HTRF Signal): 96.3% | remaining activity at 1.28 µM (C. auris Bdf1 BD1; CauBD1, 24c 1.28 microM, Exp1-3, read-out: Percent HTRF Signal): 91.7% | remaining activity at 3.2 µM (C. auris Bdf1 BD1; CauBD1, 24c 3.20 microM, Exp1-3, read-out: Percent HTRF Signal): 84.9% | remaining activity at 8 µM (C. auris Bdf1 BD1; CauBD1, 24c 8.00 microM, Exp1-3, read-out: Percent HTRF Signal): 83.4% | remaining activity at 20 µM (C. auris Bdf1 BD1; CauBD1, 24c 20.00 microM, Exp1-3, read-out: Percent HTRF Signal): 64.7% | inhibition of Bdf1 BD1 from C. auris (C. auris Bdf1 BD1; HTRF, Fig S9C): weakly inhibited | remaining activity at 0.0021 µM (C. auris Bdf1 BD2; CauBD2, 24c 0.0021 microM, Exp1-3, read-out: Percent HTRF Signal): 100% | remaining activity at 0.0052 µM (C. auris Bdf1 BD2; CauBD2, 24c 0.0052 microM, Exp1-3, read-out: Percent HTRF Signal): 94.4% | remaining activity at 0.013 µM (C. auris Bdf1 BD2; CauBD2, 24c 0.013 microM, Exp1-3, read-out: Percent HTRF Signal): 99.2% | remaining activity at 0.033 µM (C. auris Bdf1 BD2; CauBD2, 24c 0.033 microM, Exp1-3, read-out: Percent HTRF Signal): 100% | remaining activity at 0.082 µM (C. auris Bdf1 BD2; CauBD2, 24c 0.082 microM, Exp1-3, read-out: Percent HTRF Signal): 106% | remaining activity at 0.2 µM (C. auris Bdf1 BD2; CauBD2, 24c 0.20 microM, Exp1-3, read-out: Percent HTRF Signal): 105% | remaining activity at […] (C. auris Bdf1 BD2; CauBD2, 24c 0.51 microM, Exp1-3, read-out: Percent HTRF Signal): 99.5% | remaining activity at 1.28 µM (C. auris Bdf1 BD2; CauBD2, 24c 1.28 microM, Exp1-3, read-out: Percent HTRF Signal): 100% | remaining activity at 3.2 µM (C. auris Bdf1 BD2; CauBD2, 24c 3.20 microM, Exp1-3, read-out: Percent HTRF Signal): 98.7% | remaining activity at 8 µM (C. auris Bdf1 BD2; CauBD2, 24c 8.00 microM, Exp1-3, read-out: Percent HTRF Signal): 84% | remaining activity at 20 µM (C. auris Bdf1 BD2; CauBD2, 24c 20.00 microM, Exp1-3, read-out: Percent HTRF Signal): 79.1% | inhibition of Bdf1 BD2 from C. auris (C. auris Bdf1 BD2; HTRF, Fig S9C): weakly inhibited
